Patent publication US20170029454A1, “NKT CELL LIGANDS AND METHODS OF USE” (THE SCRIPPS RESEARCH INSTITUTE, priority 2013, published 2017)
Like-named read-outs stand apart in the source and are kept apart here. Each block holds one compound with its values, some of them ahead of it.

Key:
L363 antibody = assay: Surface plasmon resonance: binding of immobilized L363 antibody to CD1d-lipid complexes; conditions: for Kdiss (L363 binding to CD1d-lipid complex) / Kd / Affinity Kd (Kdiss/Kass): lipid loaded on mCD1d, single cycle SPR, Biacore T200; for Kd: read-out: Affinity Kd (Kdiss/Kass); for binding of L363 to lipid loaded into CD1d: SPR
Procedure: Single cycle analysis was performed on CM5 chips using 250-1000 RUs of immobilized antibody and increasing concentrations of CD1-lipid complexes.
(§1) A Biacore T200 instrument (GE Healthcare, Pittsburgh, Pa.) was used for SPR measurements. Measurements were performed using single cycle protocols to avoid repeated use of regeneration buffer on the immobilized ligands. Immobilization of target antibodies was carried out using classical amine coupling chemistry. 250 to 1,000 RU of antibody was immobilized in each flow cell. All mCD1-lipid complexes were purified after loading to ensure maximal homogeneity and avoid the presence of small amounts of aggregated material. Concentrations ranging from […] were used for each CD1-lipid complex. Flow cell one was used as a negative control and used for subtraction from experimental flow cells. Global analysis of subtracted sensorgrams was carried out using the T200 analysis software.
as §1, with “(available from GE” for “(GE”, “cells (L363 antibody—control antibody).” for “cells.”

DN32.D3 NKT cells = assay: T cell activation assay (IL-2 production) with Vα14 NKT hybridoma DN32.D3; format: cell-based; conditions: for effect on stimulation of NKT cells, FIG. 10 legend: DC3.2 cells treated with recombinant TNFα (legend FIG. 10); for effect on stimulation of NKT cells in the context of TNFα stimulation: DC3.2 cells, TNFα stimulation (FIG. 11); for effect on stimulation of NKT cells by DCs: non-differentiated and LPS-treated DC3.2 cells, 1-deoxygalactonojirimycin 0.5 μM, 1-deoxygluconojirimycin 2.0 μM; for effect of ceramidase inhibition on stimulatory activity towards NKT cells: untreated or LPS-treated DC3.2 cells, 24 h
Procedure: T cell hybridoma cells were cultured in RPMI supplemented with 10% FCS, 2 mM L-glutamine, 20 mM HEPES, and non-essential amino acids. Antigen presentation assays were carried out using 5-20×10^3 DC 3.2 cells or 1×10^5 splenocytes and 4×10^4 T cells per well in 96 well tissue culture plates in triplicates. Cell culture supernatants were collected 24 h later for determination of IL-2 concentrations using an IL-2-dependent NK cell line reporter system. NKT cells have a memory phenotype and hallmarks of “pre-activation” when analyzed ex vivo. In vitro they have been described as being highly autoreactive by their propensity at being activated by syngeneic target cells expressing CD1d molecules (Bendelac et al. 2007, Annual Rev. Immuno., 25:297; Park et al., 1998, J. Immunol., 160:3128). This phenomenon can be illustrated by the activation of Vα14 NKT hybridoma cell DN32.D3 against RBL-CD1, a CD1d positive cell line, that have been stimulated by […] ligands. Stimulation of DN32.D3 cells and TBA.7 cells, a non-Vα14 NKT cell hybridoma, was tested against RBL-CD1 or RBL-CD1 SAP^-/- in which […] expression was knocked down by interfering RNAs. The hybridoma cells were cultured in RPMI supplemented with 10% FCS, 2 mM L-glutamine, 20 mM HEPES, and non-essential amino acids. Antigen presentation assays were carried out using 5-20×10^3 DC 3.2 cells or 1×10^5 splenocytes and 4×10^4 T cells per well in 96-well tissue culture plates in triplicates. Cell culture supernatants were collected 24 h later for determination of IL-2 concentrations using an IL-2-dependent NK cell line reporter system. […] The results are shown in FIGS. 14A-E. A control (open circles) was included for comparison with each inhibitor (filled circles).

DC3.2 cells = assay: Toxicity of ceramidase inhibitors over a 24 h assay (viability and αGalCer presentation to DN32.D3 cells); format: cell-based
Procedure: In the absence of a suitable animal model, enzyme inhibitors were used to assess the role of ceramidases in the control of NKT ligands. […] In the T-cell activation assays, DC3.2 cells were differentiated with LPS and treated with inhibitors of α-glycosidases (GLAi and/or GAAi), 1-deoxygalactonojirimycin (0.5 μM) and 1-deoxygluconojirimycin (2.0 μM), respectively, or ceramidase inhibitors (NAAA/ASAHLi(27) (20 μM) or AC/ASAH1i, carmofur (1.0 μM) for 24 h and used to stimulate DN32.D3 NKT cells. The results are shown in FIGS. 14A-E. A control (open circles) was included for comparison with each inhibitor (filled circles).

L317 antibody = assay: Surface plasmon resonance: binding of L317 antibody to CD1d-lipid complexes; conditions: SPR
Procedure: as §1
as §1, with “(available from GE” for “(GE”, “Flow cell one was used as a negative control and used for subtraction from experimental flow cells. Global analysis of subtracted sensorgrams was carried out using the T200 analysis software.” left out

CD1d = target: T1, CD1d (Mus musculus, UniProt P11609); assay: In vitro binding of detergent to CD1d; conditions: in vitro (data not shown)
T1 sequence (P11609 19-297 limits assumed): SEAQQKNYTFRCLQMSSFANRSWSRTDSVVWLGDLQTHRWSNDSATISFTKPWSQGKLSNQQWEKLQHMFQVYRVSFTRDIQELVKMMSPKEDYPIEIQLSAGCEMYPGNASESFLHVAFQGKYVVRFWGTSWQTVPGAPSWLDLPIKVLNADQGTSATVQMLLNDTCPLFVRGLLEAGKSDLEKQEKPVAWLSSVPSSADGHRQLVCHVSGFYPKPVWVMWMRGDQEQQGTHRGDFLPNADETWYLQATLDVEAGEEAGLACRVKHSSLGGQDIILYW
T1 sequence (P01887 21-119 partner): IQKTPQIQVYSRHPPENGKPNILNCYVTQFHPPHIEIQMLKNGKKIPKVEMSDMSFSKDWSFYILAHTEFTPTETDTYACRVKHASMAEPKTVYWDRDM

ASAHL (NAAA) = target: T2, ASAHL (NAAA) (Homo sapiens, UniProt Q02083); assay: Specific activity of the ASAHL inhibitor; format: biochemical; parameters: unit not given here
T2 sequence (Q02083 29-359): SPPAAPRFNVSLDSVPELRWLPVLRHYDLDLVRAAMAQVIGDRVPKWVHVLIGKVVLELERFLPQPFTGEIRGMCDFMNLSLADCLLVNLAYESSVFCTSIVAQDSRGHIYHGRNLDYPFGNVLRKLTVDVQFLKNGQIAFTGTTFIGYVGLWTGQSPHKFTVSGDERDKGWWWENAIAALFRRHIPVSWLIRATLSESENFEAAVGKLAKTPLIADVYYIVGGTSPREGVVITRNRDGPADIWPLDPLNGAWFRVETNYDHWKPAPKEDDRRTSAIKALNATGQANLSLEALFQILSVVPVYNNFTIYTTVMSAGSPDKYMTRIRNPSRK

[1] = carmofur 1.0 μM, NAAA/ASAHLi 20 μM

- Kdiss (L363 binding to CD1d-lipid complex) (L363 antibody): 0.4711 s⁻¹
- Kd (L363 antibody): 5020 nM
Compound: CCCCCCCCCCCCC/C=C/C(O)[C@H](COC1OC(CO)C(O)C(O)C1O)NC(=O)CCCCCCCCCCCCCCCCCCCCCCCCC (stereo partly drawn) [αGluCer]

- Affinity Kd (Kdiss/Kass) (L363 antibody): N.M.
Compound: CCCCCCCC/C=C\CCCCCCCCCCCCCC(=O)N[C@@H](COC1OC(CO)C(O)C(O)C1O)C(O)/C=C/CCCCCCCCCCCCC (stereo partly drawn) [βGluCer24:1]
- stimulatory activity towards DN32.D3 after digestion with recombinant GBA (DN32.D3 NKT cells; GBA 2 h at 37° C., WT splenocytes 10^5 cells/well): Stimulatory activity was not changed

- Kdiss (L363 binding to CD1d-lipid complex) (L363 antibody): 0.05 s⁻¹
- Kd (L363 antibody): 350 nM
Compound: CCCCCCCC/C=C\CCCCCCCCCCCCCC(=O)N[C@@H](COC1OC(CO)C(O)C(O)C1O)C(O)/C=C/CCCCCCCCCCCCC (stereo partly drawn) [αGalCer24:1]

Compound: CCCCCCCCCCCCCC(=O)N[C@H](CO)[C@H](O)c1ccc([N+](=O)[O-])cc1 [NMAPPD, N-[(1R,2R)-2-hydroxy-1-(hydroxymethyl)-2-(4-nitrophenyl)ethyl]-tetradecanamide]
- toxicity over a 24 h assay (DC3.2 cells): too much toxicity

- binding of L317 to lipid loaded into CD1d (L317 antibody): no ability to bind
- binding of L363 to lipid loaded into CD1d (L363 antibody): no ability to bind
Compound: isoglobotrihexosylceramide [iGb3]

Compound: OC[C@H]1NC[C@H](O)[C@@H](O)[C@@H]1O [1-deoxygluconojirimycin]
- effect on stimulation of NKT cells, FIG. 10 legend (DN32.D3 NKT cells): induced or increased stimulation of NKT cells
- effect on stimulation of NKT cells in the context of TNFα stimulation (DN32.D3 NKT cells): did not increase stimulation of NKT cells
- effect on stimulation of NKT cells by DCs (DN32.D3 NKT cells): did not result in significant increase in stimulatory activity

- Affinity Kd (Kdiss/Kass) (L363 antibody): N.M.
Compound: CCCCCCCCCCCCCC[C@@H](O)C(O)[C@@H](N)COC1OC(CO)C(O)C(O)C1O (stereo partly drawn)

- binding of L317 to lipid loaded into CD1d (L317 antibody): no ability to bind
- binding of L363 to lipid loaded into CD1d (L363 antibody): no ability to bind
Compound: αGal(α1-2)Galactosylceramide

Compound: OC[C@H]1NC[C@H](O)[C@@H](O)[C@H]1O [1-deoxygalactonojirimycin]
- effect on stimulation of NKT cells, FIG. 10 legend (DN32.D3 NKT cells): induced or increased stimulation of NKT cells
- effect on stimulation of NKT cells in the context of TNFα stimulation (DN32.D3 NKT cells): did not increase stimulation of NKT cells
- effect on stimulation of NKT cells by DCs (DN32.D3 NKT cells): induced or increased a robust stimulation of NKT cells

- binding to CD1d (CD1d): not bind CD1d to any measurable extent
Compound: CCCCCCCCCCCC1(C)OCC(COCCCS(=O)(=O)[O-])O1.[Na+] (stereo not drawn) [Sodium 3-[(2-methyl-2-undecyl-1,3-dioxolan-4-yl)methoxy]-1-propanesulfonate]

Compound: CCCCCCNC(=O)n1cc(F)c(=O)[nH]c1=O [carmofur, 1-Hexylcarbamoyl-5-fluorouracil]
- increase of stimulatory activity of thymocytes towards DN32.D3 (DN32.D3 NKT cells; thymocytes as APC, carmofur 1.0 μM): 2.5 fold
- effect of ceramidase inhibition on stimulatory activity towards NKT cells (DN32.D3 NKT cells; [1]): significant increase in stimulatory activity
- toxicity over a 24 h assay (DC3.2 cells; viability and αGalCer presentation to DN32.D3 cells after treatment): very limited cell toxicity

Compound: O=C(CCc1ccc(-c2ccccc2)cc1)N1CCCC1 [NAAA inhibitor, 1-(2-Biphenyl-4-yl)ethyl-carbonyl pyrrolidine]
- effect on stimulatory activity of thymocytes towards DN32.D3 (DN32.D3 NKT cells; thymocytes as APC, NAAA/ASAHLi 20 μM): no effect
- effect of ceramidase inhibition on stimulatory activity towards NKT cells (DN32.D3 NKT cells; [1]): very limited but reproducible increase in stimulatory activity
- specific activity of the inhibitor of ASAHL (ASAHL (NAAA)): 10-200

- Kdiss (L363 binding to CD1d-lipid complex) (L363 antibody): 0.0083 s⁻¹
- Kd (L363 antibody): 96.7 nM
Compound: CCCCCCCCCCCCCCCCCCCCCCCCCC(=O)N[C@@H](COC1OC(CO)C(O)C(O)C1O)C(O)[C@H](O)CCCCCCCCCCCCCC (stereo partly drawn) [αGalCer]
